Experimental data as given in the NIST ThermoML archive (doi:10.1021/acs.jced.7b00107).
Numbers after ± are expanded uncertainties.

Columns and labels:
[1] = for molar entropy: 101.33 kPa; for Triple point temperature: Adiabatic calorimetry
[2] = Molar enthalpy of transition or fusion; conditions: Adiabatic calorimetry

Cl.NC12CC3CC(CC(C3)C1)C2 [1-aminoadamantane hydrochloride]
[1]
Conditions	molar entropy [J/K/mol]
5 K, Crystal 3, Small (less than 1 g) adiabatic calorimetry	0.1924 ± 0.028
10 K, Crystal 3, Small (less than 1 g) adiabatic calorimetry	1.564 ± 0.063
15 K, Crystal 3, Small (less than 1 g) adiabatic calorimetry	4.477 ± 0.13
20 K, Crystal 3, Small (less than 1 g) adiabatic calorimetry	8.48 ± 0.18
25 K, Crystal 3, Small (less than 1 g) adiabatic calorimetry	13.09 ± 0.23
30 K, Crystal 3, Small (less than 1 g) adiabatic calorimetry	17.99 ± 0.28
35 K, Crystal 3, Small (less than 1 g) adiabatic calorimetry	22.99 ± 0.32
40 K, Crystal 3, Small (less than 1 g) adiabatic calorimetry	27.96 ± 0.36
45 K, Crystal 3, Small (less than 1 g) adiabatic calorimetry	32.87 ± 0.39
50 K, Crystal 3, Small (less than 1 g) adiabatic calorimetry	37.68 ± 0.43
60 K, Crystal 3, Small (less than 1 g) adiabatic calorimetry	46.99 ± 0.51
70 K, Crystal 3, Small (less than 1 g) adiabatic calorimetry	55.88 ± 0.58
80 K, Crystal 3, Small (less than 1 g) adiabatic calorimetry	64.42 ± 0.65
90 K, Crystal 3, Small (less than 1 g) adiabatic calorimetry	72.68 ± 0.73
100 K, Crystal 3, Small (less than 1 g) adiabatic calorimetry	80.74 ± 0.8
110 K, Crystal 3, Small (less than 1 g) adiabatic calorimetry	88.67 ± 0.85
120 K, Crystal 2, Small (less than 1 g) adiabatic calorimetry	96.9 ± 0.93
120 K, Crystal 3, Small (less than 1 g) adiabatic calorimetry	96.53 ± 0.91
123.1 K, Crystal 1, Small (less than 1 g) adiabatic calorimetry	100.6 ± 1
123.1 K, Crystal 2, Small (less than 1 g) adiabatic calorimetry	99.33 ± 0.95
130 K, Crystal 1, Small (less than 1 g) adiabatic calorimetry	106 ± 1
140 K, Crystal 1, Small (less than 1 g) adiabatic calorimetry	113.7 ± 1.1
150 K, Crystal 1, Small (less than 1 g) adiabatic calorimetry	121.3 ± 1.2
160 K, Crystal 1, Small (less than 1 g) adiabatic calorimetry	128.7 ± 1.2
170 K, Crystal 1, Small (less than 1 g) adiabatic calorimetry	136 ± 1.2
180 K, Crystal 1, Small (less than 1 g) adiabatic calorimetry	143.3 ± 1.3
190 K, Crystal 1, Small (less than 1 g) adiabatic calorimetry	150.5 ± 1.4
200 K, Crystal 1, Small (less than 1 g) adiabatic calorimetry	157.7 ± 1.4
210 K, Crystal 1, Small (less than 1 g) adiabatic calorimetry	164.8 ± 1.5
220 K, Crystal 1, Small (less than 1 g) adiabatic calorimetry	172 ± 1.5
230 K, Crystal 1, Small (less than 1 g) adiabatic calorimetry	179.1 ± 1.5
240 K, Crystal 1, Small (less than 1 g) adiabatic calorimetry	186.3 ± 1.6
250 K, Crystal 1, Small (less than 1 g) adiabatic calorimetry	193.4 ± 1.7
260 K, Crystal 1, Small (less than 1 g) adiabatic calorimetry	200.6 ± 1.7
270 K, Crystal 1, Small (less than 1 g) adiabatic calorimetry	207.8 ± 1.7
280 K, Crystal 1, Small (less than 1 g) adiabatic calorimetry	215 ± 1.9
290 K, Crystal 1, Small (less than 1 g) adiabatic calorimetry	222.2 ± 1.9
298.15 K, Crystal 1, Small (less than 1 g) adiabatic calorimetry	228.1 ± 1.9
300 K, Crystal 1, Small (less than 1 g) adiabatic calorimetry	229.5 ± 1.9
310 K, Crystal 1, Small (less than 1 g) adiabatic calorimetry	236.7 ± 1.9
320 K, Crystal 1, Small (less than 1 g) adiabatic calorimetry	244 ± 2.1
330 K, Crystal 1, Small (less than 1 g) adiabatic calorimetry	251.3 ± 2.1
340 K, Crystal 1, Small (less than 1 g) adiabatic calorimetry	258.6 ± 2.1
350 K, Crystal 1, Small (less than 1 g) adiabatic calorimetry	265.9 ± 2.2
360 K, Crystal 1, Small (less than 1 g) adiabatic calorimetry	273.3 ± 2.3
370 K, Crystal 1, Small (less than 1 g) adiabatic calorimetry	280.6 ± 2.3
380 K, Crystal 1, Small sample (50 mg) DSC	288 ± 6.7
390 K, Crystal 1, Small sample (50 mg) DSC	295.4 ± 6.9
400 K, Crystal 1, Small sample (50 mg) DSC	302.8 ± 7.2
410 K, Crystal 1, Small sample (50 mg) DSC	310.2 ± 7.5
420 K, Crystal 1, Small sample (50 mg) DSC	317.6 ± 7.9
430 K, Crystal 1, Small sample (50 mg) DSC	325 ± 8.2
440 K, Crystal 1, Small sample (50 mg) DSC	332.5 ± 8.6
450 K, Crystal 1, Small sample (50 mg) DSC	339.9 ± 9
460 K, Crystal 1, Small sample (50 mg) DSC	347.3 ± 9.4
470 K, Crystal 1, Small sample (50 mg) DSC	354.8 ± 9.8

Conditions	Molar enthalpy of transition or fusion, [2] [kcal/mol]	Triple point temperature, [1] [K]
Crystal 2	0.0366 ± 0.000717	123.1 ± 0.4
Crystal 3	0.0108 ± 0.000717	120 ± 0.4
